This passage reports Activity and IC50 results from ChEMBL document CHEMBL6115002, “Discovery of novel sitolactone derivative leading to PANoptosis and differentiation of acute myeloid leukemia cells” (Eur J Med Chem, 2025).

Each structure is given as a SMILES string.

One data set has as its system Kasumi 1. Briefly: Induction of cell cycle arrest in human Kasumi 1 cells assessed as increase in accumulation of cells at G1 phase at 0.25 uM incubated for 24 hrs by propidium iodide staining based flow cytometric analysis (reference value: 50.41%). Format: functional.
In another data set the test system is A549. Briefly: Antiproliferative activity against human A549 cells assessed as inhibition of cell proliferation incubated for 72 hrs by CCK-8 assay. It is filed as functional, cell-based. To be noted: A549, 72 h.
The nature of data set [1]: Toxicity in Balb/c mouse implanted with mouse WEHI-3 cells assessed as change in body weight at 100 to 200 mg/kg, po administered (4aR,6aS,7S,9aS,9bS)-2-(((S)-2-(hydroxymethyl)pyrrolidin-1-yl)methyl)-6a-methyl7 ((triisopropylsilyl)oxy)decahydrocyclopenta[f]chromen-3(2H)-one as prodrug once daily and measured after 15 days. Format: organism-based. To be noted: in vivo, 360 h, dose 100-200 mg/kg, time 15 day.

In a further data set the test system is PC-3. Briefly: Antiproliferative activity against human PC-3 cells assessed as inhibition of cell proliferation incubated for 72 hrs by CCK-8 assay. Format: functional, cell-based. To be noted: PC-3, 72 h.

In the case of `C=C1C[C@@H]2[C@@H](CC[C@]3(C)[C@@H](O[Si](C(C)C)(C(C)C)C(C)C)CC[C@@H]23)OC1=O`, the Activity in the data set with Kasumi 1 is 52.67%; in data set [1], “Non-toxic”. In addition, the IC50 in the data set on A549 is 5.24 µM; with PC-3 it was 2.09 µM.
